# Active and inactive are the calls of the source.
# How the values were obtained:
# [1] = inhibitors of firefly luciferase expression or activity, dose response, H4 neuroglioma cells, luminescence (AID 1990); format: functional, cell-based
# [2] = system: HEK293; assay: NOD1 signaling inhibitors, primary screen, cell-based, luminescence, uHTS (AID 1578); format: functional; settings: Homo sapiens
# [3] = Luminescence Cell-Based Dose Response HTS to Identify Inhibitors of 5'UTR Stem-Loop Driven Prion Protein mRNA Translation in H4 Neuroglioblastoma Cells. [Related pubchem assays: 1827 (Project Summary), 1813 (Primary HTS)]; format: functional
# [4] = inhibitors of SNCA 5'UTR-driven reporter translation, confirmation, H4 neuroglioma cells, luminescence (AID 1988); format: functional, cell-based
# [5] = system: HEK293; assay: cells; format: functional, cell-based; settings: Homo sapiens
# [6] = target: Nucleotide-binding oligomerization domain-containing protein 2 (Homo sapiens, UniProt Q9HC29); assay: NOD2 signaling inhibitors, cell-based, luminescence, uHTS, HEK293 (AID 1566); format: functional
# Chain of Nucleotide-binding oligomerization domain-containing protein 2 (Q9HC29 whole entry, the tested form may be a part): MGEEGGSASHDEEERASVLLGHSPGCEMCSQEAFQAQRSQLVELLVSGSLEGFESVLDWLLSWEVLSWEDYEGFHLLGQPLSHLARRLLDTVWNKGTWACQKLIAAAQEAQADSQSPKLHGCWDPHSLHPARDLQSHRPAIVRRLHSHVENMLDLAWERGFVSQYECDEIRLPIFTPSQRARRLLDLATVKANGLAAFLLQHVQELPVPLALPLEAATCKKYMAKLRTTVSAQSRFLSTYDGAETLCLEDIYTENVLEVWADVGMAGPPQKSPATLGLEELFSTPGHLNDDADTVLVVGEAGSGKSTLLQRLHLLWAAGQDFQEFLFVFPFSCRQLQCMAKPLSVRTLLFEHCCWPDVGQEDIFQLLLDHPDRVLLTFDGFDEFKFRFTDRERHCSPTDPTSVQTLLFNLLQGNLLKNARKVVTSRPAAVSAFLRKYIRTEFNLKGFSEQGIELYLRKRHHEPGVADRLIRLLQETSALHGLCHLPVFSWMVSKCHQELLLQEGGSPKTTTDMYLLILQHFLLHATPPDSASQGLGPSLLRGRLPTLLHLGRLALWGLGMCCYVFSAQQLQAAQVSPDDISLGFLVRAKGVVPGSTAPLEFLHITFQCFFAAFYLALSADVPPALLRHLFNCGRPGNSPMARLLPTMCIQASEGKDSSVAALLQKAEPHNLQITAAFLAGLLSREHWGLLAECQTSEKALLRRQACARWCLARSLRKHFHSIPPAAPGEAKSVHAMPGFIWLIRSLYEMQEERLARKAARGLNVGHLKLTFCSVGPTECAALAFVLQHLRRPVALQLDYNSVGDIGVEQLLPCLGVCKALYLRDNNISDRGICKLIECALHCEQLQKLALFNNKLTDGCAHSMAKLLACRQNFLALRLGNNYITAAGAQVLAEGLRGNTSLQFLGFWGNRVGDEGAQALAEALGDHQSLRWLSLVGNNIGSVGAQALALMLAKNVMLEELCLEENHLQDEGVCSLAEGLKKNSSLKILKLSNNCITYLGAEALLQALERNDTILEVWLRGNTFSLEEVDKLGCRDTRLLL
# [7] = system: HEK293; assay: NOD2 signaling inhibitors in MDP-stimulated cells, cell-based, uHTS, luminescence (AID 2001); format: functional; settings: Homo sapiens
# [8] = system: HEK293; assay: cells; format: functional, cell-based; settings: Homo sapiens; remark: listed apart in the source
# [9] = system: CHO; assay: cytotoxicity in TLR9-MyD88 CHO cells, dose response, cytotoxicity control for TLR9-MyD88 binding inhibitor project, cell-based, luminescence (AID 588339); format: functional, hamster; settings: Cricetulus griseus;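 further: CHO cells stably coexpressing TLR9 and MyD88 fusions from primary screen; compound exposure lasted 48 hours before viability readout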
# [10] = target: T1, Replicative DNA helicase DnaB (Mycobacterium tuberculosis, UniProt P9WMR3); assay: DnaB intein splicing inhibitors, dose response, biochemical, cell-free fluorescence (AID 449749); format: functional
# T1 sequence (P9WMR3 whole entry): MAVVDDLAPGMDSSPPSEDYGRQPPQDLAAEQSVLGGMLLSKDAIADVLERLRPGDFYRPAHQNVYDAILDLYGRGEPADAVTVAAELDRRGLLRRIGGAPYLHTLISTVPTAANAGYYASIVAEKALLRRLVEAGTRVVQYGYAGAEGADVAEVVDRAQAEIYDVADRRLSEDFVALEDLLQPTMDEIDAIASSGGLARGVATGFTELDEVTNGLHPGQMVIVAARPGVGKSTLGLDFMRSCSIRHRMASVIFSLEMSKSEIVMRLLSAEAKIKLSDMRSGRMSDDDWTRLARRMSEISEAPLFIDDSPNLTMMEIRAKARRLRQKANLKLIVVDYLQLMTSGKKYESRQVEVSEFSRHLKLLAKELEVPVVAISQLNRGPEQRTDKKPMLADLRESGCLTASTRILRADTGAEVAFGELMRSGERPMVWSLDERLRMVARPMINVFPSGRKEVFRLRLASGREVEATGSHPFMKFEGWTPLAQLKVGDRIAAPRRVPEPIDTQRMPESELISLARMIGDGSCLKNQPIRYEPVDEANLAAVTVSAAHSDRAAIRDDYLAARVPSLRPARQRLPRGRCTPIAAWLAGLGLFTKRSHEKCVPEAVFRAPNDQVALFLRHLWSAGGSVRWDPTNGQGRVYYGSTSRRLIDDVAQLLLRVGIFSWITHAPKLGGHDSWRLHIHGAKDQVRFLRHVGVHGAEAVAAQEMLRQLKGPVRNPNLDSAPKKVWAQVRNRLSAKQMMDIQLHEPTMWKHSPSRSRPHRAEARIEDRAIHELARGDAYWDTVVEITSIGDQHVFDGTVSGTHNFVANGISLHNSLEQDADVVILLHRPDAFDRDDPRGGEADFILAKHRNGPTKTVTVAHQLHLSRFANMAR
# [11] = target: Heat shock protein HSP 90-alpha (Homo sapiens, UniProt P07900); format: functional, organism-based
# [12] = target: T2, Protein RecA (Mycobacterium tuberculosis, UniProt P9WHJ3); assay: Fluorescence Cell-Free Homogeneous Dose Retest to Identify Inhibitors of RecA-Intein Splicing Activity. [Related pubchem assays (depositor defined):AID2097, AID2223, AID489010, AID492950]; format: functional
# T2 sequence (P9WHJ3 whole entry): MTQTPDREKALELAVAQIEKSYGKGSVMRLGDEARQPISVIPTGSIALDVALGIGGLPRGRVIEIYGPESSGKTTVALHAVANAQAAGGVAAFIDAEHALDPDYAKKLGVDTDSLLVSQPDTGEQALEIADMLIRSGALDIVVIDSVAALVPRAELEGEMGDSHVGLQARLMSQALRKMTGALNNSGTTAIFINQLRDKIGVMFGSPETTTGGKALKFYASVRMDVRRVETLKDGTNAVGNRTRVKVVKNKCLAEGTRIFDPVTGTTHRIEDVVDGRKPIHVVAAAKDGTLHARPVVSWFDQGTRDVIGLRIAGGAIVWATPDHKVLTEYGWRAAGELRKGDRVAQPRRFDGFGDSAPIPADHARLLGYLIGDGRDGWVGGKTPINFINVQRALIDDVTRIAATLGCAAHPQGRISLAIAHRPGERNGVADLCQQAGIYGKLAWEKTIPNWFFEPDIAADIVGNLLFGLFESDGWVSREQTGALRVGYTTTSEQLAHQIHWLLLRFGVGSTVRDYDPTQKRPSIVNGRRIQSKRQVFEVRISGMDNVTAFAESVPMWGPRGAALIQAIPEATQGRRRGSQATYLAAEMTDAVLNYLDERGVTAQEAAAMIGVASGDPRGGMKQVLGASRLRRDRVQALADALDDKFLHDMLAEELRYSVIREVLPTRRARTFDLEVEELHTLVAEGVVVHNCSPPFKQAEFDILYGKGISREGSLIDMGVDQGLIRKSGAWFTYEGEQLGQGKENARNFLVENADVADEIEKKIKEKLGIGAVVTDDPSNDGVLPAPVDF
# [13] = target: Beta Lactamase (Pseudomonas aeruginosa, UniProt Q932Y6); assay: beta-lactamase reporter inhibitor potency, dose response, artefact control for TLR9-MyD88 binding inhibitor project, BLA reporter cells, FRET fluorescence (AID 588341); format: cell-based;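 further: cell based assay in CHO-K1 cells stably expressing beta-lactamase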
# Chain of Beta Lactamase (Q932Y6 whole entry): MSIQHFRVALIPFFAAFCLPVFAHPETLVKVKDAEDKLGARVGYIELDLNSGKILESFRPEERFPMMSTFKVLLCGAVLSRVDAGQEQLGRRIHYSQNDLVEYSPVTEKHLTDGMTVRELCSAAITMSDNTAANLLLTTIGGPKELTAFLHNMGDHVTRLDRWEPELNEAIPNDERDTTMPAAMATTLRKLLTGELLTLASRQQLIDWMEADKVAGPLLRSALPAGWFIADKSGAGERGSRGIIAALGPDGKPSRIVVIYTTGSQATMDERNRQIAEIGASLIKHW
# [14] = Shn3 3'UTR reporter inhibitors, dose response, cell-based, Clone20 osteoblasts, firefly luciferase, cherry-picked (AID 624132); format: functional;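 further: firefly luciferase luminescence from reporter carrying the Shn3 3'UTR in osteoblasts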
# [15] = target: ATP-binding cassette sub-family B member 6 (Homo sapiens, UniProt Q9NP58); assay: ABCB6 transporter inhibitors, dose response, K562-ABCB6 cells, flow cytometry, cherry pick 1 (AID 623955); format: functional; settings: read-out: EC50_MICROM
# Chain of ATP-binding cassette sub-family B member 6 (Q9NP58 whole entry): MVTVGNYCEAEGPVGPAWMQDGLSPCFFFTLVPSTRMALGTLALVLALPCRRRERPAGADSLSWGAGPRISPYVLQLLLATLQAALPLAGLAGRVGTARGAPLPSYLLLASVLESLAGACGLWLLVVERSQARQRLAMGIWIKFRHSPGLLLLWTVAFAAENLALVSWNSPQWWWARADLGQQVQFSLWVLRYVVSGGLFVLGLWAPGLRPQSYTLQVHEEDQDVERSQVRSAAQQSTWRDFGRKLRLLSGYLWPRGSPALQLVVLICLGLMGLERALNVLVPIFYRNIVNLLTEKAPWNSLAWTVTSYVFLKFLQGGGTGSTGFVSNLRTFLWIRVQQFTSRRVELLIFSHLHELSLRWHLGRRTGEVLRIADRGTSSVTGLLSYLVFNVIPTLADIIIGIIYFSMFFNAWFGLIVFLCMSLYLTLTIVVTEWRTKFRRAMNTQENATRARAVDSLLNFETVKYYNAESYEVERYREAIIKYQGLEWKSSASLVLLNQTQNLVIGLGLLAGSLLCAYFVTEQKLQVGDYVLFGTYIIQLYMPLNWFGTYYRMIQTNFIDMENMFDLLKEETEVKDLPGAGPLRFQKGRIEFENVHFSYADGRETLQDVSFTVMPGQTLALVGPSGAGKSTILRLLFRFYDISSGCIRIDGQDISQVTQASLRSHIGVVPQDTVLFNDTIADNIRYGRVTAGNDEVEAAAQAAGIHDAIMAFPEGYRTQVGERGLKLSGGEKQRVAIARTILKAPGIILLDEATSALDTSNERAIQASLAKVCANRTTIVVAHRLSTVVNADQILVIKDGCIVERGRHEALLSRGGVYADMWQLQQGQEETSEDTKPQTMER
# [16] = HepG2 cell cytotoxicity, dose response, cytotoxicity control for Shn3 inhibitor project, CellTiter-Glo, cherry-picked (AID 624134); format: functional, cell-based
# [17] = control 3'UTR Renilla luciferase suppression, dose response, counter-screen for Shn3 inhibitor project, cell-based, Clone20-Shn3RL, cherry-picked (AID 624133); format: functional
# [18] = target: T3, Fatty acid synthase (Homo sapiens, UniProt P49327); assay: FAS thioesterase domain inhibitors, dose response, biochemical, endpoint fluorescence intensity, uHTS hits (AID 624327); format: functional;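 further: fluorescence from hydrolysis of an O-methyl fluorescein acyl ester substrate by the enzyme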
# T3 sequence (P49327 whole entry, the tested form may be a part): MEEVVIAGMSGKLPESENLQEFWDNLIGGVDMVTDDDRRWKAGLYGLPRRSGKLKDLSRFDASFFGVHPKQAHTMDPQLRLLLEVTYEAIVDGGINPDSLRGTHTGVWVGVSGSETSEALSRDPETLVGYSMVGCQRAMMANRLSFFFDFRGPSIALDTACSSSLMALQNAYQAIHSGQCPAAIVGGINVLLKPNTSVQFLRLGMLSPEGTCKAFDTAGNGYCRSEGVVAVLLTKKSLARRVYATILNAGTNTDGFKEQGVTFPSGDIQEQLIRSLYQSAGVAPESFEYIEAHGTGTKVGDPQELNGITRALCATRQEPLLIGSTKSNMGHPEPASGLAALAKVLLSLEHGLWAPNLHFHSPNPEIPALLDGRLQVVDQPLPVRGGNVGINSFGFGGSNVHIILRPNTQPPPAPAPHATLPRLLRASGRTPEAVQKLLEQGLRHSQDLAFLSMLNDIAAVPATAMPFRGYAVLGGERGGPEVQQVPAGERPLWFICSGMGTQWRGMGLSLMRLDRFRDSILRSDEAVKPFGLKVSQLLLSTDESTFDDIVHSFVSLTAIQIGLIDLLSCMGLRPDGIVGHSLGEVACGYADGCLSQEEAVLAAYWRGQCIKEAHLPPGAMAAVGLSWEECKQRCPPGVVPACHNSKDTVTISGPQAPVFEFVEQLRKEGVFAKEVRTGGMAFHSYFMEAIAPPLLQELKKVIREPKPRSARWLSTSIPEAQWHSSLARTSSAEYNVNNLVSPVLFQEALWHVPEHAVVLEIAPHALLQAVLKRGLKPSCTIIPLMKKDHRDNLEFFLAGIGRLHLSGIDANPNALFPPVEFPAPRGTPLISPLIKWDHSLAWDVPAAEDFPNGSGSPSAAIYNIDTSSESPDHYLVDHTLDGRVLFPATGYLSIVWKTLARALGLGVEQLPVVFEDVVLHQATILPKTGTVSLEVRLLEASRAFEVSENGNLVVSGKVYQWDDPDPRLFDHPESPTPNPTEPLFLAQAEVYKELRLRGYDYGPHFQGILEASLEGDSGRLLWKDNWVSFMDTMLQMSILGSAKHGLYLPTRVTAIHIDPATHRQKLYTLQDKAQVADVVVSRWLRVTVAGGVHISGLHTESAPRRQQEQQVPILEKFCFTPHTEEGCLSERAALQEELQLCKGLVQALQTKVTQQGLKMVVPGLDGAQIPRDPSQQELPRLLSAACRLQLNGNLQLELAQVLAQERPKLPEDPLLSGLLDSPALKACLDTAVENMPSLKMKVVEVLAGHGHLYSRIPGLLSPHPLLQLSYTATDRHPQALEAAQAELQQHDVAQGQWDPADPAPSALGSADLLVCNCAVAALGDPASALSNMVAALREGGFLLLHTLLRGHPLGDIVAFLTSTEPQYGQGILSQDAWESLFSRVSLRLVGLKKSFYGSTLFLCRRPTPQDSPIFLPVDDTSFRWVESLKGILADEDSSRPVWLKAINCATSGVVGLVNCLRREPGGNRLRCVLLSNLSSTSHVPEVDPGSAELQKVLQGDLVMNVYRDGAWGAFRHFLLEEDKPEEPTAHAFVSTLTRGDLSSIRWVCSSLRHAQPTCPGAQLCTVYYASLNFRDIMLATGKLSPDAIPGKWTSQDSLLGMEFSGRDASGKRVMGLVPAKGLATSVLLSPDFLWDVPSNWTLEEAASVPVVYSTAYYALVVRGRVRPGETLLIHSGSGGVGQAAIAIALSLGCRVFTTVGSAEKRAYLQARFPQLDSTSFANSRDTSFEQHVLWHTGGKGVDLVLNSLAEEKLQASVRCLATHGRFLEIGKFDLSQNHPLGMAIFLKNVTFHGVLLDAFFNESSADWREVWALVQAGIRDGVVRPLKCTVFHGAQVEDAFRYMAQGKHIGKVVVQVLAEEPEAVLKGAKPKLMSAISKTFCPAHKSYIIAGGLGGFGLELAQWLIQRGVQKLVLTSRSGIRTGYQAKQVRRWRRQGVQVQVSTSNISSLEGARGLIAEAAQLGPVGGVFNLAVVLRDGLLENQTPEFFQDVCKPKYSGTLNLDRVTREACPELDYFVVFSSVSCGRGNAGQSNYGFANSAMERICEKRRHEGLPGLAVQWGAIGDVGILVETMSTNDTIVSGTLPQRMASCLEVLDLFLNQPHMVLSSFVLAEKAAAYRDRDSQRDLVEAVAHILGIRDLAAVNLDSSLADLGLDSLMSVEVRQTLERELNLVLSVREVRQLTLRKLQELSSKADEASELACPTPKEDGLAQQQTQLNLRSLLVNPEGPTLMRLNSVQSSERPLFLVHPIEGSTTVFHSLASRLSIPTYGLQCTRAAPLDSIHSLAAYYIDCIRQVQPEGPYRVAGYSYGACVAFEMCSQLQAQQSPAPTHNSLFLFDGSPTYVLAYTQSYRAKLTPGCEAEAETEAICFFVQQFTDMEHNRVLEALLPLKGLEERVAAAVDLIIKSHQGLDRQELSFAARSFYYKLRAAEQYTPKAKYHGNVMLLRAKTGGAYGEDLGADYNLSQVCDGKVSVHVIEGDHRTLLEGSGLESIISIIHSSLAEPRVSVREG
# [19] = target: T3, Fatty acid synthase; assay: FAS thioesterase domain inhibitors, dose response, biochemical, kinetic fluorescence intensity (AID 624326); format: functional;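 further: rate of fluorescence rise from hydrolysis of a fluorogenic O-methyl fluorescein ester substrate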
# [20] = target: Paired box protein Pax-8 (Homo sapiens, UniProt Q06710); assay: inhibitors of PAX8-driven TPO luciferase reporter, dose response, RMG-I cells, cherry-pick (AID 687027); format: functional, cell-based;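 further: luciferase reporter driven by Pax8 target thyroperoxidase promoter measured by SteadyGlo luminescence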
# Chain of Paired box protein Pax-8 (Q06710 whole entry): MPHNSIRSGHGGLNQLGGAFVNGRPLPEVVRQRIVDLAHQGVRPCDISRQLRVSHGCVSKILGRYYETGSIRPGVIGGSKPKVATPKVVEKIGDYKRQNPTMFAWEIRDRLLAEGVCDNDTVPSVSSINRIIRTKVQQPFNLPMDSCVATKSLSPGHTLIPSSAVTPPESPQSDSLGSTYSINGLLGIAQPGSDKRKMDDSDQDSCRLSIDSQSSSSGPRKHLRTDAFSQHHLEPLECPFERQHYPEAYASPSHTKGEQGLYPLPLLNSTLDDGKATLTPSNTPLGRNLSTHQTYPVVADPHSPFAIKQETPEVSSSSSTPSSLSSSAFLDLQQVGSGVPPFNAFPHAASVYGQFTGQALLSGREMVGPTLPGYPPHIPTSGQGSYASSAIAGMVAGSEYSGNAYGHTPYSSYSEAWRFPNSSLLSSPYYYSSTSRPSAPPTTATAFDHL
# [21] = PAX2 cell-based inhibition, dose response, selectivity assay for PAX8 inhibitor project, plate reader, dry powder samples (AID 743048); format: functional;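 further: HEK293 cells carrying a WT1 promoter luciferase reporter driven by expressed Pax2; potency is for inhibition of Pax2 driven reporter signal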
# [22] = cytotoxicity in COV362 ovarian cancer cells, dose response, cytotoxicity control for PAX8 inhibitor project, cell-based, plate reader, dry powder, SA12 (AID 743144); format: functional
# [23] = IOSE-T80 ovarian epithelial cell cytotoxicity, dose response, cytotoxicity control for PAX8 inhibitor project, plate reader, dry powder samples (AID 743045); format: functional, cell-based
# [24] = A2780 ovarian cancer cell cytotoxicity, dose response, cytotoxicity control, plate reader, dry powder samples (AID 743046); format: functional, cell-based
# [25] = NIH:OVCAR-3 ovarian cancer cell cytotoxicity, dose response, PAX8 inhibitor project, plate reader, dry powder samples (AID 743044); format: functional, cell-based
# [26] = PAX5 activity inhibitors, dose response, selectivity assay for PAX8 inhibitor project, cell-based, plate reader, dry powder samples (AID 743047); format: functional;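 further: HEK293 cells carrying a Pax5 driven CD19 promoter luciferase reporter; potency of inhibitors that lower reporter luminescence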
# [27] = IGROV1 ovarian cancer cell cytotoxicity, dose response, PAX8 inhibitor project, plate reader, dry powder samples (AID 743043); format: functional, cell-based; settings: IGROV-1
# [28] = cytotoxicity in OVCAR4 cells, dose response, cytotoxicity control for PAX8 inhibitor project, cell-based, plate reader, dry powder, SA11 (AID 743150); format: functional; settings: OVCAR-4
# [29] = cytotoxicity in COV434 cells, dose response, cytotoxicity control for PAX8 inhibitor project, cell-based, plate reader, dry powder, SA7 (AID 743145); format: functional
# [30] = cytotoxicity in OV-90 ovarian cancer cells, dose response, PAX8 inhibitor project, cell-based, plate reader, dry powder, SA8 (AID 743149); format: functional
# [31] = cytotoxicity dependent on PAX8, dose response, cell-based, plate reader, dry powder (AID 743049); format: functional
# [32] = system: Escherichia coli; assay: microbe, parasite or virus in culture
smiles,measurement,setting,value
Cc1cccc(CS(=O)(=O)c2ncc(Cl)c(C(=O)Nc3ccc(F)cc3)n2)c1,EC50,[1],12.2 µM (active)
same,EC50,[2],8.42 µM (active)
same,EC50,[3],22 µM (active)
same,EC50,[4],12.4 µM (active)
same,IC50,[5],> 20 µM (inactive)
same,EC50,[6],> 20 µM (inactive)
same,IC50,[7],10.8 µM (inactive)
same,IC50,[8],> 20 µM (inactive)
same,IC50,[9],2.72 µM (active)
same,AC50,[10],3.25 µM (active)
same,AC50,[11],1.73 µM (active)
same,EC50,[12],2.19 µM (active)
same,IC50,[13],9.48 µM (active)
same,AC50,[14],0.55 µM (active)
same,EC50,[15],80.4 µM (active)
same,AC50,[16],29.2 µM (active)
same,AC50,[17],6.54 µM (active)
same,IC50,[18],9.64 µM (active)
same,IC50,[19],19.4 µM (active)
same,AC50,[20],9.28 µM (active)
same,AC50,[21],14.8 µM (active)
same,AC50,[22],7.95 µM (active)
same,AC50,[23],10.5 µM (active)
same,AC50,[24],23.8 µM (active)
same,AC50,[25],7.88 µM (active)
same,AC50,[26],31.4 µM (active)
same,AC50,[27],9.96 µM (active)
same,AC50,[28],10.5 µM (active)
same,AC50,[29],4.11 µM (active)
same,AC50,[30],8.4 µM (active)
same,AC50,[31],12.7 µM (active)
same,AC50,[32],25.5 µM (active)

# Reference: ChEMBL document CHEMBL1201862, “PubChem BioAssay data set” (2004)
